The experiment deals with T1, EAG1 (mEAG1) (Mus musculus, UniProt Q60603).
T1 construct: gene Kcnh1
T1 sequence (Q60603 505-702): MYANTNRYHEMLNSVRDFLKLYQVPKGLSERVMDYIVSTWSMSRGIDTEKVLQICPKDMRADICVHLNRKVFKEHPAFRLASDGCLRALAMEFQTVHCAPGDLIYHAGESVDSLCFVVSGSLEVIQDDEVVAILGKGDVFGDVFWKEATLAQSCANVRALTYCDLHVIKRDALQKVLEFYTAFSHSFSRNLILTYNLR
Briefly: tryptophan fluorescence titration of purified C-terminal region; gating effect also seen in inside-out patches. It counts as binding.

Structures are written as SMILES.

Molecule `O=c1c(O)c(-c2cc(O)c(O)c(O)c2)oc2cc(O)cc(O)c12` [myricetin] registered a Kd greater than 100 µM.

As usually defined, the Kd is a measure of binding affinity in units of concentration.

(Values after paper PMC2932742, “Identifying Regulators for EAG1 Channels with a Novel Electrophysiology and Tryptophan Fluorescence Based Screen” (PLoS ONE, 2010).)
